One assay relates to Alpo6-wt. As to the kind of experiment: Two-electrode voltage clamp (TEVC) on Alpo6-wt expressed in Xenopus laevis oocytes. In kind it is cell-based, Alvinella pompejana. The note with it: for Hill-coefficients: activation-response curves; for EC50: concentration-activation curve. As to the method: (§1) For the expression in Xenopus laevis oocytes, the genes coding for AlpoX-wt were subcloned into the vector pGEM-HE [38]. After NheI-treatment, the linearized plasmid DNA was transcribed to produce capped RNA by using the T7 mMESSAGE-mMACHINE transcription kit (Ambion). Four nanogram of the resulting RNA was injected into the cytosol of stage V and VI oocytes either manually or with an automated injection system (Roboinject, MultiChannelSystems). Oocyte preparations and injections were done using standard procedures.
(§2) One to five days after injection, electrophysiological recordings were performed by conventional or automated TEVC (HiClamp, MultiChannel Systems). […] Unless indicated otherwise, cells were held at a fixed potential of –80 mV throughout the experiment. To minimize heat shock, all preparation and recording procedures were carried out at 16°C [40]. Functional characterization consisted of the screening of potential ligands, the establishment of concentration-activation curves and the determination of ion selectivity. Different small molecules were tested for their effects on AlpoX-wt, such as dopamine, taurine, γ-aminobutyric acid (GABA), glycine and ivermectin (the complete list and the corresponding concentrations are mentioned in Table 1). To determine concentration-activation curves, cells were exposed to increasing concentrations of the test substance. To assess ion selectivity, current-voltage (I-V) relationships were determined in control OR2 solution as well as in medium in which chloride ions were substituted by gluconate. These I-V curves were generated by voltage ramps applied within 4 s and constructed around the reversal potential (Erev ± 80 mV). Leak properties of the cells measured in control conditions were subtracted from the I-V curves measured during exposure to 10 mM GABA.
(§3) Data were acquired either on a manual setup or on an automated recording system (HiClamp, MultiChannel Systems). […] Data acquired with the HiClamp were analyzed using the corresponding software.
On the technique in general: Two-electrode voltage clamp holds a large cell at a set potential and records current.

For another assay, the system named is Alpo5-wt. As to the kind of experiment: Two-electrode voltage clamp (TEVC) on Alpo5-wt expressed in Xenopus laevis oocytes. It counts as cell-based, Alvinella pompejana. The following applies: for Hill coefficient / EC50: concentration-activation curve, n = 4; for EC50: Hill fit, -80 mV. How it is done:
as §1, §2, §3

Assay [1] addresses Alpo4-wt (Alvinella pompejana). Put plainly: negative stain EM; purified protein 0.03 mg/mL on carbon-coated copper grids, 1% uranyl formate, 120 kV; 2D class averages for Alpo4-wt.

Where two headings read alike, the source gives them in different places.

One may read the Hill coefficient as a measure of the steepness of the concentration-response curve. Consider `NCCCC(=O)O` [GABA, γ-aminobutyric acid], for which, in the assay with Alpo6-wt, the agonist type result is on record as “partial agonistic effect” and the Hill-coefficients is on record as 1.94 ± 0.15. For the same compound, the “current evoked by a saturating concentration relative to current evoked by a saturating concentration of glycine” value with Alpo6-wt (on average) came to 86%. In the assay on Alpo5-wt, the agonist type result is “full-agonists” and the Hill coefficient amounted to 2.49 ± 0.09.

A word on the EC50: it is the concentration at which the effect is half-maximal. As to `NCC(=O)O` [glycine], in the assay on Alpo6-wt, the agonist type entry is “full agonists” and the Hill-coefficients is 2.20 ± 0.16. For the same compound, the EC50 with Alpo6-wt (n = 3, read-out: EC50 values) turned out to be 22.1 ± 4.53 mM. In the assay with Alpo5-wt, the agonist type result is listed as “full-agonists”, a half-maximal effect (EC50) was put at 291 ± 16.4 µM and the Hill coefficient amounted to 2.68 ± 0.08.

As to `NCCS(=O)(=O)O` [taurine], in the assay with Alpo6-wt, the agonist type entry is on record as “full agonists” and the Hill-coefficients is 1.87 ± 0.12. The EC50 in the assay with Alpo6-wt (n = 3, read-out: EC50 value) was determined as 0.227 ± 0.0305 mM. In the assay on Alpo5-wt, the agonist type result is recorded as “partial agonist”, a half-maximal effect (EC50) was put at 370 ± 30.2 µM and the Hill coefficient amounted to 2.51 ± 0.18. Besides, in the assay with Alpo5-wt (on average), the “currents evoked at a saturating concentration relative to responses evoked by a saturating concentration of glycine” value was 74%.

The stoichiometry N is the number of molecules, sites or subunits per partner or assembly. With Alpo4-wt (receptor), in assay [1], the stoichiometry N worked out at 5.
